Read-outs that look alike come from different tables or passages of the source.
Tests used:
[1] = test system: rats (schedule-induced polydipsia); assay: Schedule-Induced Polydipsia in Rats; format: in vivo, rat (male Wistar); conditions: i.p., daily; rats tested once a week
Text: Schedule-Induced Polydipsia in Rats
Food deprived rates exposed to a fixed-interval feeding schedule and allowed free access to water develop an excessive drinking behavior known as polydipsia. This schedule-induced polydipsia (SIP) cannot be explained in terms of a physiological deficit due to water deprivation. Furthermore,it offers no benefit or reward to the rat (1). Just as SIP involves the exaggeration of the normal drinking behavior, the compulsive symptoms of obsessive-compulsive disorder (OCD) can be considered an exaggeration of normal human behaviors.
Male Wistar rats (Charles River) weighing 180-220 grams were individually housed and maintained in accordance with the "NIH Guide to Care and Use of Laboratory Animals" (National Institute of Health Care Publications, No. 85-23, revised 1985) with a 12 hour light; 12 hour dark cycle and allowed free access to water. The rats were placed on a restricted diet which maintained 80% of their free feeding body weight. To induce polydipsia, rats were placed in operant chambers housed in sound attenuated boxes where a pellet dispenser automatically dispensed two 45 mg (Noyes) pellets on a fixed-interval 60 second (FI-60 sec.) schedule over a 150 minute test session. Water was available at all times in the operant chambers. After four weeks (Monday through Friday) of exposure to the FI-60 sec. feeding schedule, approximately 80% of the rats met a pre-determined criterion for water consumption (greater than 60 mls of water per session) and were considered polydipsic. Rats (N=8) were administered, intraperitoneally (IP), vehicle or the appropriate compound daily. Once dosing commenced, the rats were tested in the operant chambers once a week to assess SIP.
Compounds were either dissolved or suspended in distilled water plus a drop of Tween 80 and injected IP in a dosage volume of 1 ml/kg. The final volume was prepared to account for salt content and the dosage was expressed as 100% base.

5HT3 receptor = molecular target: T1, 5HT3 receptor (Rattus norvegicus, UniProt P35563); assay: biochemical; format: binding, rat (male Wistar, entorhinal cortex)
T1 sequence (P35563 24-483): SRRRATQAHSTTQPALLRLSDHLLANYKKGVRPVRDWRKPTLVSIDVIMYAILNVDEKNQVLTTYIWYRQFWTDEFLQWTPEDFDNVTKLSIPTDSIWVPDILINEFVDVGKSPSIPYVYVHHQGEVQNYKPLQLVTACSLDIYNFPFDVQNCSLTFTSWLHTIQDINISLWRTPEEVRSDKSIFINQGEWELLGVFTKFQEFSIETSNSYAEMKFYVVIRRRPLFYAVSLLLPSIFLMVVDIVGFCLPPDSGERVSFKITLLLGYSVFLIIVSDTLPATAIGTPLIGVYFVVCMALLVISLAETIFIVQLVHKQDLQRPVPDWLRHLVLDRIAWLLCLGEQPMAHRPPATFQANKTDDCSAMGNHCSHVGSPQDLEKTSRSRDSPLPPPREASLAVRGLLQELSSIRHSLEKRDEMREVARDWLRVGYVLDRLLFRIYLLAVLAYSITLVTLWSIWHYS
Procedure: The homogenate is centrifuged at 48,000 g for 15 minutes at 4° C.
The filters are dried and counted in 10 ml of liquid scintillation cocktail.

[2] = test system: dopamine uptake, rat striatal synaptosomes; assay: Inhibition of 3H-Dopamine Uptake in Rat Striatal Synaptosomes; format: biochemical, rat (male Wistar); conditions: 3H-DA 50 nM, read-out: D: Inhibition of dopamine uptake, IC50
Procedure: (D) Inhibition of ^3 H-Dopamine Uptake in Rat Striatal Synaptosomes
This assay is used to show differential drug effects on dopamine uptake versus norepinephrine uptake and to identify therapeutic agents for diseases where the potentiation of dopaminergic activity may be helpful (e.g. Parkinson's Disease).
(§1) A. Animals: Male CR Wistar Rats (100-125 g).
The final desired concentration of ^3 H-DA in the assay is 50 nM. The dilution factor is 0.9. Therefore, the KHBB is made up to contain 55.5 nM [^3 H]-5DA.
5. For most assays, a 1 mM stock solution of the test compound is made up in a suitable solvent and serially diluted such that the final concentration in the assay ranges from 2×10^-8 to 2×10^-5 M. Seven concentrations are used for each assay. Higher or lower concentrations may be used depending on the potency of the compound.
(§2) Male Wistar rats are decapitated and the brain rapidly removed. Corpora striata are rapidly removed, weighed and homogenized in 9 volumes of ice-cold 0.32 M sucrose using a Potter-Elvejhem homogenizer. Homogenization should be done with 4-5 up and down strokes at medium speeds to minimize synaptosome lysis. The homogenate is centrifuged at 1000 g for 10 min. at 0-4° C. The supernatant (S1) is decanted and is used for uptake experiments.
(§3) Tubes are incubated at 37° C. under a 95% O2 /5% CO2 atmosphere for 5 minutes. For each assay, 3 tubes are incubated with 20 μl of vehicle at 0° C. in an ice bath. After incubation all tubes are immediately centrifuged at 4000 g for 10 minutes. The supernatant fluid is aspirated and the pellets dissolved by adding 1 ml of solubilizer (Triton X-100+50% EtOH, 1:4 v/v). The tubes are vigorously vortexed, decanted into scintillation vials, and counted in 10 ml of Liquiscint scintillation counting cocktail. Active uptake is the difference between cpm at 37° C. and 0° C. The percent inhibition at each drug concentration is the mean of three determinations. IC50 values are derived from log-probit analysis.

[3] = test system: serotonin uptake, rat whole brain synaptosomes; assay: Inhibition of [3H]-Serotonin Uptake in Rat Whole Brain Synaptosomes; format: biochemical, rat (male Wistar); conditions: [3H]-5HT 50 nM, read-out: C: Inhibition of serotonin uptake, IC50
Procedure: (C) Inhibition of [^3 H]-Serotonin Uptake in Rat Whole Brain Synaptosomes
as §1
The final desired concentration of ^3 H-5HT in the assay is 50 nM. The dilution factor is 0.8.
5. For most assays, a 1 mM solution of the test compound is made up in suitable solvent and serially diluted such that the final concentration in the assay ranges from 2×10^-8 to 2×10^-5 M. Seven concentrations are used for each assay.
as §2, with “Whole brain minus cerebella is” for “Corpora striata are rapidly removed,”
as §3, with “(Tritor.” for “(Triton”

[4] = test system: norepinephrine uptake, rat whole brain or hypothalamic synaptosomes; assay: Inhibition of [3H]-Norepinephrine Uptake in Rat Whole Brain or Hypothalamic Synaptosomes; format: biochemical, rat (male Wistar); conditions: [3H]-NE 50 nM, read-out: E: Inhibition of norepinephrine uptake, IC50
Procedure: (E) Inhibition of [^3 H]-Norepinephrine Uptake in Rat Whole Brain or Hypothalamic Synaptosomes
This assay is used as a biochemical screen for potential antidepressants which block norepinephrine uptake.
A. Animals: Male CR Wistar rats (100-125 g).
The final desired concentration of [^3 H]-NE in the assay is 50 nM. The dilution factor is 0.8.
5. For most assays, a 1 mM stock solution of the test compound is made up in a suitable solvent and serially diluted such that the final concentration in the assay ranges from 2×10^-8 to 2×10^-5 M. Seven concentrations are used for each assay.
as §2, with “Either whole brain minus cerebella or hypothalamus is” for “Corpora striata are rapidly removed,”
as §3

5HT1A receptor = molecular target: T2, 5HT1A receptor (Rattus norvegicus, UniProt P19327); assay: [3H]DPAT Binding to Serotonin Receptors of 5HT1A Type; set-up: species or system rat (male Wistar, hippocampus); conditions: [3H]DPAT 0.5 nM, rat hippocampal membranes
T2 construct: Hippocampi are removed, weighed and homogenized in 20 volumes of 0.05 M Tris buffer; from tissue; host or cells: rat hippocampus membranes (male Wistar)
T2 sequence (P19327 1-422): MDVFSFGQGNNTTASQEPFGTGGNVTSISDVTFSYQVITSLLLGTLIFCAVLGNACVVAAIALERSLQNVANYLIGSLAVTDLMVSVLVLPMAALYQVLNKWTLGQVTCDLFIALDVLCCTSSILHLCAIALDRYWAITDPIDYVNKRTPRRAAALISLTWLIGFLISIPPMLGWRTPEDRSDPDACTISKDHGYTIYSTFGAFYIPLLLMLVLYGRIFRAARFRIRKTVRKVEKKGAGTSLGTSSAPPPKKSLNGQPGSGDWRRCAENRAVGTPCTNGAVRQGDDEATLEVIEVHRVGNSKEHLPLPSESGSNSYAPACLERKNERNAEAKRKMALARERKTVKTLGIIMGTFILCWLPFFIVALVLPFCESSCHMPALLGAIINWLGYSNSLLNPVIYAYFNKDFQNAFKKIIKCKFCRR
Procedure: The purpose of this assay is to determine the affinity of test compounds for the 5HT1A receptor in the brain.
Serotonin creatinine sulfate. 0.5 mM stock solution is made up in 0.01 N HCl and 20 μl added to 3 tubes for determination of nonspecific binding (final concentration=10 μM).
Test Compounds. For most assays, a 1 mM stock solution is made up in a suitable solvent and serially diluted, such that the final concentration in the assay ranges from 2×10^-5 to 2×10^-8 M. Seven concentrations are used for each assay.
Male Wistar rats are sacrificed by decapitation. Hippocampi are removed, weighed and homogenized in 20 volumes of 0.05 M Tris buffer, pH 7.7. The homogenate is centrifuged at 48,000 g for 10 minutes and the supernatant is discarded. […]
Tubes are incubated for 15 minutes at 25° C. […] The filters are then placed into scintillation vials with 10 ml of Liquiscint scintillation cocktail and counted.
Specific binding is defined as the difference between total binding and binding in the presence of 10 μM 5HT. IC50 values are calculated from the percent specific binding at each drug concentration. […]
Tubes are incubated for 15 minutes at 25° C. […] The filters are then placed into scintilltion vials with 10 ml of Liquiscint scintillation cocktail and counted. […] IC50 values are calculated from the percent specific binding at each drug concentration.

[5] = test system: norepinephrine uptake (active transport system); conditions: high-affinity, sodium dependent active transport system; literature; read-out: Km (NE uptake); cited from earlier work
[6] = [3H]-GR65630 0.4 nM, rat entorhinal cortex, read-out: B: 5HT3 receptor binding, IC50

Compound: CC(C)CN(c1ccncc1)c1csc2cc(Cl)ccc12.Cl [6-Chloro3-[(2-methylpropyl)(4-pyridinyl)amino]benzo[b]thiophen hydrochloride]
- inhibition of SIP (schedule-induced polydipsia), active dose [1]: Active at 15

Compound: CCCN(c1ccncc1)c1csc2cc(Cl)ccc12.Cl [6-Chloro-3-(propyl-4-pyridinylamino)benzo[b]thiophene hydrochloride]
- inhibition of SIP (schedule-induced polydipsia), active dose [1]: Active at 30 and 15
- IC50 (5HT3 receptor; [6]): 2600 nM
- IC50 [2]: 560 nM
- IC50 [3]: 0.06 µM
- IC50 [4]: 210 nM

Compound: CN1[C@@H]2CC[C@H]1C[C@@H](OC(=O)c1cc(Cl)cc(Cl)c1)C2 [MDL 72222, reference compound]
- IC50 (5HT3 receptor): 530 nM

Compound: CN(C)CCCN1c2ccccc2CCc2ccc(Cl)cc21 [Clomipramine, reference compound]
- inhibition of SIP (schedule-induced polydipsia), active dose [1]: Active at 5

Compound: CNCCC(Oc1ccc(C(F)(F)F)cc1)c1ccccc1 (stereo not drawn) [Fluoxetine, reference compound]
- inhibition of SIP (schedule-induced polydipsia), active dose [1]: Active at 5

Compound: c1ccc2c(Nc3ccncc3)c[nH]c2c1 [3-(4-pyridinylamino)-1H-indole]
- IC50 (5HT1A receptor): 6.4 µM
- IC50 (5HT3 receptor; [6]): 5500 nM
- IC50 [3]: 14.5 µM
- IC50 [4]: 1000 nM

Compound: CC(C)CN(c1ccncc1)c1csc2cc(C(F)(F)F)ccc12.Cl [3-[(2-Methylpropyl)(4-pyridinylamino)]-6-trifluoromethylbenzo[b]thiophene hydrochloride]
- inhibition of SIP (schedule-induced polydipsia), active dose [1]: Active at 15

Compound: NC[C@H](O)c1ccc(O)c(O)c1 [norepinephrine]
- Km [5]: 100 to 1000 nM

Source: US6022880A, “Substituted pyridylamino indoles” (Hoechst Marion Roussel, Inc., priority 1997, dated 2000)
